#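 In this assay, cells in 96-well plates receive the compound at five concentrations for 48 hours. Endpoints are linearly interpolated between the surrounding concentrations. The concentration for 50% growth inhibition is given as GI50. TGI: total growth inhibition.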
# How the values were obtained:
# Test in all cases: DTP human tumour cell line panel, 48 h
# [1] = test system: A549 NSCLC
# [2] = test system: HCT-116 colon
# [3] = test system: KM12 colon
# [4] = test system: LOX IMVI melanoma
# [5] = test system: NCI-H522 lung
# [6] = test system: RXF 393 renal
# [7] = test system: SF-268 CNS
# [8] = test system: SF-539 CNS
# [9] = test system: SK-MEL-5 melanoma
# [10] = test system: SNB-19 CNS
Structure (SMILES),GI50 [1] [µM],TGI [1] [µM],GI50 [2] [µM],TGI [2] [µM],GI50 [3] [µM],TGI [3] [µM],GI50 [4] [µM],TGI [4] [µM],GI50 [5] [µM],TGI [5] [µM],GI50 [6] [µM],TGI [6] [µM],GI50 [7] [µM],TGI [7] [µM],GI50 [8] [µM],TGI [8] [µM],GI50 [9] [µM],TGI [9] [µM],GI50 [10] [µM],TGI [10] [µM]
Nc1nc2ccc([C@@H]3Nc4ccc5[nH]ncc5c4[C@H]4[C@H]5CCC(C5)[C@H]43)cc2s1,0.994,3.98,0.488,1.84,0.838,2.3,0.935,2.54,1.38,3.4,1.47,7.56,1.49,4.52,0.812,2.88,1.66,13,1.3,11
Nc1nc2c(c3ncccc13)C(c1cccc(Cl)c1)Cc1ncccc1-2 (stereo not given),3.08,> 100,1.36,14.5,0.646,15.5,5.12,19.5,0.417,2.82,0.908,4.9,3.79,32.1,1.96,7.25,1.34,14.7,2.5,17.7
CC[N+](CC)=c1ccc2nc3c(cc(NCc4ccccc4)c4ccccc43)oc-2c1,0.215,0.56,0.154,0.709,0.292,1.32,0.127,0.299,0.149,0.567,0.781,2.12,0.307,1.51,4.19,21.2,0.147,0.28,1.19,2.51
O=C(Nc1cnn2ccc(N3CCC[C@@H]3c3cc(F)ccc3F)nc12)N1CC[C@H](O)C1,> 100,> 100,> 100,> 100,0.0122,> 100,> 100,> 100,> 100,> 100,> 100,> 100,> 100,> 100,> 100,> 100,> 100,> 100,> 100,> 100
COc1ccc(-c2cnc(-c3ccc(F)cc3)[nH]2)cc1,5.8,16.1,1.36,3.39,1.7,3.27,5.49,10.8,20.5,> 56.1,2.2,5.59,2.62,8,9.46,29.6,7.81,20.7,10.8,26.1
O=C(CC/C(C/C(=N/O)c1ccc(F)cc1)=N/O)N(Cc1ccccc1)Cc1ccccc1,–,> 100,–,> 100,–,> 100,–,> 100,–,> 100,–,> 100,–,> 100,–,> 100,–,> 100,–,> 100
